Experimental data taken from patent US9458480B2, “Microorganisms and methods for the biosynthesis of adipate, hexamethylenediamine and 6-aminocaproic acid” (GENOMATICA, INC., priority 2009, dated 2016).

B1: pcaF from Pseudomonas putida KT2440: β-ketothiolase pcaF from Pseudomonas putida KT2440 (protein, UniProt Q51956 1-400, looked up)
Beta-ketoadipyl-CoA thiolase: MRDVFICDAIRTPIGRFGGALAGVRADDLAAVPLKALIEPNPAVQWDQVDEVFFGCANQAGEDNRNVARMALLLAGLPESIPGVTLNRLCASGMDAIGTAFRAIASGEMELAIAGGVESMSRAPFVMGKAESGYSRNMKLEDTTIGWRFINPLMKSQYGVDSMPETADNVADDYQVSRADQDAFALRSQQKAAAAQAAGFFAEEIVPVRIAHKKGETIVERDEHLRPETTLEALTKLKPVNGPDKTVTAGNASGVNDGAAALILASAEAVKKHGLTPRARVLGMASGGVAPRVMGIGPVPAVRKLTERLGVAVSDFDVIELNEAFASQGLAVLRELGVADDAPQVNPNGGAIALGHPLGMSGARLVLTALHQLEKSGGRKGLATMCVGVGQGLALAIERV
B2: pcaF from Pseudomonas aeruginosa PAO1: β-ketothiolase pcaF from Pseudomonas aeruginosa PAO1 (protein, UniProt Q9I6R0 1-401, looked up)
Beta-ketoadipyl-CoA thiolase: MSREVFICDAVRTPIGRFGGSLSAVRADDLAAVPLKALVERNPGVDWSALDEVFLGCANQAGEDNRNVARMALLLAGLPESVPGVTLNRLCASGMDAIGTAFRAIACGEMELAIAGGVESMSRAPYVMGKADSAFGRGQKIEDTTIGWRFVNPLMKEQYGIDPMPQTADNVADDYRVSRADQDAFALRSQQRAGRAQEAGFFAEEIVPVTIRGRKGDTLVEHDEHPRPDTTLEALARLKPVNGPEKTVTAGNASGVNDGAAALVLASAEAVEKHGLTPRARVLGMASAGVAPRIMGIGPVPAVRKLLRRLDLAIDAFDVIELNEAFASQGLACLRELGVADDSEKVNPNGGAIALGHPLGMSGARLVLTALHQLEKSGGRRGLATMCVGVGQGLALAIERV
B3: paaJ: β-ketothiolase paaJ from Escherichia coli, His-tagged, purified (protein, UniProt P0C7L2 1-401, looked up)
3-oxoadipyl-CoA/3-oxo-5,6-dehy …: MREAFICDGIRTPIGRYGGALSSVRADDLAAIPLRELLVRNPRLDAECIDDVILGCANQAGEDNRNVARMATLLAGLPQSVSGTTINRLCGSGLDALGFAARAIKAGDGDLLIAGGVESMSRAPFVMGKAASAFSRQAEMFDTTIGWRFVNPLMAQQFGTDSMPETAENVAELLKISREDQDSFALRSQQRTAKAQSSGILAEEIVPVVLKNKKGVVTEIQHDEHLRPETTLEQLRGLKAPFRANGVITAGNASGVNDGAAALIIASEQMAAAQGLTPRARIVAMATAGVEPRLMGLGPVPATRRVLERAGLSIHDMDVIELNEAFAAQALGVLRELGLPDDAPHVNPNGGAIALGHPLGMSGARLALAASHELHRRNGRYALCTMCIGVGQGIAMILERV
modifications: His-tag
notes: β-ketothiolase paaJ from Escherichia coli, His-tagged, purified

Columns and labels:
E. coli [1] = test: Ethanol production (metabolic activity) of E. coli cultures exposed to 6-ACA; format: cell-based, Escherichia coli; settings: resuspended cultures, overnight growth
Procedure: Midlog or early stationary cells were spun down and resuspended in fresh M9-Glucose medium with various concentrations of 6-ACA. After overnight growth, cultures were measured for growth by measuring OD600 and metabolic activity assayed by ethanol production.
(§1) E. coli was assayed for tolerance, metabolic activity and growth during exposure to various concentrations of 6-aminocaproate (6-ACA). Aerobically, cultures were able to grow media with up to 10% 6-ACA, while anaerobic cultures could grow in media with approximately 6% 6-ACA (FIG. 15). Because the pathway for producing 6-ACA could require anaerobic conditions, all other further testing was performed under anaerobic conditions. To assay tolerance, cultures were grown anaerobically to mid-log(0.3 OD) and early stationary phase (0.6 OD), the cells were spun down and resuspended in medium containing various concentrations of 6-ACA. The cultures were grown in capped microfuge tubes, grown overnight and the ODs of the cultures were assayed (FIG. 16). Under these conditions, cultures were able to grow (double at least 1 time) in up to 10% 6-ACA. The additional tolerance could have been from the additional glucose from resuspending the cultures in fresh M9-glucose medium or from limited oxygen that was present in the capped microfuge tube. […]

E. coli [2] = format: cell-based, Escherichia coli
Procedure: FIG. 18, panels A and B, show the growth in various concentrations of 6-ACA with and without glycine betaine. Panel A. OD600 measurements of medium inoculated with midlog cultures of E. coli with various concentrations of 6-ACA with (right bars) and without (left bars) 2 mM glycine betaine. Panel B. Photograph showing the growth of same cultures in the anaerobic bottles.
At high concentrations (>65 g/L) the osmolarity of 6-ACA is ˜0.5 M which may cause osmotic stress. To determine osmotic stress as the basis for 6-ACA growth inhibition, cultures were grown in various concentrations of 6-ACA with and without the osmoprotectant glycine betaine. […] Therefore much of the toxicity of 6-ACA is likely due to the osmotic stress. However, it should be noted that […] is similar to the amino acid lysine and could have a greater toxic effect in the cell cytoplasm vs. outside the cell.

E. coli [3] = test: Growth of E. coli in media containing various concentrations of 6-ACA; format: cell-based, Escherichia coli
Procedure: E. coli was inoculated into media and grown in either aerobic (left and right bars) or anaerobic (middle bars) conditions. The cultures were grown for 48 hrs during the first trial and 30 hrs for a second trial under aerobic conditions (right bars).
as §1

E. coli [4] = test: Tolerance of E. coli cells resuspended in medium with various concentrations of 6-ACA (OD after overnight growth); format: cell-based, Escherichia coli; settings: cells grown anaerobically to mid-log (0.3 OD) and early stationary phase (0.6 OD), resuspended in fresh M9-glucose medium, capped microfuge tubes
Procedure: Midlog (OD600=0.3, lower dashed line) or early stationary (OD600=0.6, upper dashed line) cells were spun down and resuspended in fresh M9-Glucose medium with various concentrations of 6-ACA. After overnight growth, cultures were measured for growth by measuring OD600.
as §1

[5] = biological target: Lysine decarboxylase (EC 4.1.1.18) (Escherichia coli, UniProt P0A9H3); settings: E. coli enzyme; cited from earlier work
Lysine decarboxylase (EC 4.1.1.18), sequence (P0A9H3 whole entry): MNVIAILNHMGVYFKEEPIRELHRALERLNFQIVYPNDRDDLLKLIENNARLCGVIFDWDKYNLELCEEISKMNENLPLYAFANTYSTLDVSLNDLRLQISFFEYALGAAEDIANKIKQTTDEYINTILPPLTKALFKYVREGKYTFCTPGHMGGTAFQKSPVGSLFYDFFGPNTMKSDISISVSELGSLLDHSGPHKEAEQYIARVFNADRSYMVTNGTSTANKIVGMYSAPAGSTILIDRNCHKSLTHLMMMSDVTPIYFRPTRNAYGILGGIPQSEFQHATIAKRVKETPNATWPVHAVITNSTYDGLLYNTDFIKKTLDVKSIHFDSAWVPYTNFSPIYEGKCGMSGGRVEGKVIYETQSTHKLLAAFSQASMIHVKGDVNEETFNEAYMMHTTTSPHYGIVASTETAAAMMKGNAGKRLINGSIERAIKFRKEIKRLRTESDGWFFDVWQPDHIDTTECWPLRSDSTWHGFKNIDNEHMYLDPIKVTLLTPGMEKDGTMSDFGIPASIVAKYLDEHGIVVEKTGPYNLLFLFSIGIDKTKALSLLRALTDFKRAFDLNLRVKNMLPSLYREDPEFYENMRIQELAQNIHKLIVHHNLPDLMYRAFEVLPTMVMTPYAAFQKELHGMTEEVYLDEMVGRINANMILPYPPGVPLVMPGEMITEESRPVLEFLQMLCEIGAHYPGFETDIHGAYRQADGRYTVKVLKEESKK

[6] = In vitro thiolase reactions with purified His-tagged thiolases, LC/MS analysis; format: biochemical; settings: for Condensation of succinyl-CoA and acetyl-CoA into β-ketoadipyl-CoA: 0.5 μM purified thiolase, succinyl-CoA:acetyl-CoA 2:1, 30° C., 30 minutes, LC/MS; for Activities in the oxoadipyl-CoA forming direction: as summarised in Example XXVI
Procedure: Succinyl-CoA and acetyl-CoA were added to His-tagged, purified thiolases at a ratio of 2:1 (succinyl-CoA:acetyl-CoA). Reactions were analyzed by LC/MS and quantified by comparison to a standard for acetoacetyl-CoA or peak area determined for 3-oxoadipyl-CoA (β-ketoadipyl-CoA).
For example, the gene products encoded by pcaF in Pseudomonas strain B13 (Kaschabek et al., J. Bacteriol, 184(1): 207-15 (2002)), phaD in Pseudomonas putida U (Olivera et al., Proc Nall Acad Sci USA, 95(11), 6419-24 (1998)), paaE in Pseudomonas fluorescens ST (Di Gennaro et al., Arch Microbiol, 188(2), 117-25 (2007)), and paaJ from E. coli (Nogales et al., Microbiology, 153(Pt 2), 357-65 (2007)) catalyze the conversion of 3-oxoadipyl-CoA into succinyl-CoA and acetyl-CoA during the degradation of aromatic compounds such as phenylacetate or styrene.
The genes were expressed in E. coli and the proteins purified using Ni-NTA spin columns and quantified. To assay enzyme activity in vitro, a […] CoA:DTNB (Ellman's reagent or 5,5′-dithiobis-(2-nitrobenzoic acid)) mixture was prepared. The mixture consisted of 10 mM succinyl-CoA, 5 mM acetyl-CoA, 30 mM DTNB in 100 mM Tris buffer, pH 7.4. […] of the CoA:DTNB mixture was added to 0.5 μM purified thiolase enzyme in 100 mM Tris buffer, pH 7.8 in a final volume of 50 μL. The reaction was incubated at 30° C. for 30 minutes, then quenched with 2.5 μL 10% formic acid and samples frozen at −20° C. until ready for analysis by LC/MS. Because many thiolases can condense two acetyl-CoA molecules into acetoaceytl-CoA, production of acetoacetyl-CoA was examined. […] These were fadAx from Pseudomonas putida, thiA from Clostridium acetobutylicum and thiB also from Clostridium acetobutylicum. […] There was excellent specificity between the thiolases.

Molecule | Inhibition of lysine decarboxylase [5] | Condensation of succinyl-CoA and acetyl-CoA into β-ketoadipyl-CoA [6] | Activities in the oxoadipyl-CoA forming direction [6] | further results
NCCCCCC(=O)O [6-ACA, 6-aminocaproic acid] | competitive inhibitors | – | – | Ethanol production (metabolic activity) in the presence of 6-ACA (E. coli [1]): closely tracked with OD; 6-ACA concentration in medium allowing anaerobic growth (E. coli [2]): 4-6%; 6-ACA concentration in media in which cultures were able to grow (E. coli [3]; aerobic): up to 10%; 6-ACA concentration in media in which cultures could grow (E. coli [3]; anaerobic): approximately 6%; 6-ACA concentration in which cultures were able to grow (double at least 1 time) (E. coli [4]): up to 10%
NC(CCCCC(=O)O)C(=O)O (stereo not drawn) [2-Aminopimelate] | competitive inhibitors | – | – | –
B1 | – | demonstrated the desired activity | – | –
B2 | – | demonstrated the desired activity | significant and selective activities | –
B3 | – | demonstrated the desired activity | significant and selective activities | –
